Where a name gives a salt, the structure may show the parent alone.

Broadly, the IC50 is the concentration that inhibits the measured activity by half.

The target in this assay is T1, rh beta Tryptase (Homo sapiens, UniProt Q15661).
T1 construct: purchased Promega
The assay can be described thus: Tryptase inhibition test (cleavage of chromogenic substrate, p-nitroaniline read at 405 nm). The note with it: Tris HCl buffer 100 mM, calcium 5 mM, heparin, pH 7.4, 37°C; substrate N-p-Tosyl-Gly-Pro-Lys-para-nitroanilin 0.6 mM; 5 min preincubation, 5 min incubation; 0.91 U/ml enzyme. In kind it is biochemical. How it is done: Die erfindungsgemäßen Verbindungen zeichnen sich durch ihre Tryptase-inhibierende Wirksamkeit aus. Besagte Fähigkeit, die Tryptase zu inhibieren, wurde gemäß der nachfolgenden Testbeschreibung untersucht. Die Bestimmung wird in Tris HCI Puffer (100 mM), der zusätzlich Calcium (5 mM) und Heparin ([…]) enthält, bei pH 7.4 durchgeführt. Als Standard wird rh beta Tryptase eingesetzt, die beispielsweise von Promega käuflich zu erwerben ist. Als Substrat dient N-p-Tosyl-[…]-nitroanilin in einer Konzentration von 0.6 mM. Das Substrat wird durch Tryptase verdaut wobei p-Nitroanilin entsteht, das bei 405 nm gemessen werden kann. Üblicherweise wird eine Inkubationszeit von 5 Minuten und eine Inkubationstemperatur von 37°C gewählt. Als Enzymaktivität werden 0.91 U/ml eingesetzt. Die Bestimmung erfolgt in einem Autoanalyser (Cobas Bio) der Firma Hofmann LaRoche. Die potentiellen Hemmsubstanzen werden in Konzentrationen von 10 μM im Screening eingesetzt, wobei die Hemmung der Tryptase in Prozent angegeben wird. […] Nach 5-minütiger Vorinkubation der potentiellen Hemmsubstanzen, wird das Substrat zum […] Reaktion zugegeben, wobei die Bildung von p-Nitroanilin […]. […]

T1 sequence (Q15661 31-275): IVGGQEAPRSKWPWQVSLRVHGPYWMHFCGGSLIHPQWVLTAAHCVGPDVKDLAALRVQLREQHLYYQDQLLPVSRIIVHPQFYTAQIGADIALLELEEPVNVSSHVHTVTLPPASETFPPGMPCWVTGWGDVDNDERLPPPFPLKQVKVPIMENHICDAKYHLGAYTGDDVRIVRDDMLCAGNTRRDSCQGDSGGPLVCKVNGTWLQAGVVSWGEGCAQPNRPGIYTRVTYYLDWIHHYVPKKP

As for `CCN(CC)CCN(c1ccc2c(c1)nc(CCc1ccc(C(=N)N)cc1)n2C)S(=O)(=O)c1cccc2c(N(C)C)cccc12` [Beispiel 2, N-{2-[2-(4-Amidinophenyl)ethyl]-1-methyl-benzimidazol-5-yl}-N-diethylaminoethyl-(dansylamid)-dihydrochlorid], the IC50 was determined as 11 nM.

These data come from patent EP1220845B1, “ARYL-SULFONAMIDE SUBSTITUTED BENZIMIDAZOL DERIVATIVES AND USE OF SAID AS TRYPTASE INHIBITORS” (Boehringer Ingelheim Pharma GmbH & Co.KG, priority 1999, dated 2001).
